The values that follow come from patent US5338752A, “Substituted 2-imidazolone derivatives, their preparation and pharmaceutical compositions” (SK&F Laboratories Ltd., priority 1990, dated 1994).

One experiment concerns washed human platelets. Kind of experiment: Aggregation of washed human platelets (stimulus 1 μM U46619). Format: cell-based. Conditions: Platelet; aspirin-treated washed human platelets; compound added 2 min before 1 μM U46619; assessed 4 min after stimulus; 37° C. The procedure:
METHOD FOR MEASUREMENT OF AGGREGATION OF WASHED HUMAN PLATELETS
Platelets were prepared from freshly drawn human blood. Blood was collected into acid citrate anticoagulant, centrifuged (5 min at 500 g), and the upper layer of platelet-rich plasma was removed. This platelet-rich plasma was incubated with aspirin (100 μM) for 10 min at 37° C. and then centrifuged (15 min at 200 g). The platelet pellet was resuspended (at approx. 1.5×10^8 cells/ml) in medium containing NaCl (145 mM), KCl (5 mM), MgCl2 (1 mM), CaCl2 (0.2 mM), Hepes (10 mM, ph 7.4 at 37° C.), glucose (10 mM), apyrase (10 μg/ml). Aggregation was monitored (as a change in optical density) at 37° C. in a 4 channel aggregometer (PAP-4 from Biodata Corp.). Fibrinogen (1 mg/ml) and CaCl2 (1 mM) were added to aliquots of platelets that were continuously stirred. The test compound (or 0.1% DMSO vehicle) was added 2 min before the aggregatory stimulus (1 μM U46619). The extent of aggregation was assessed 4 min after addition of the stimulus, and was calculated as % of the control response in the absence of test compound. Dose-response curves were constructed for measurement of IC50 values for each compound.

Experiment [1] deals with T1, [^3 H]iloprost binding to human platelet membranes (Homo sapiens, UniProt P43119).
T1 construct: Membranes were prepared from outdated platelet-rich plasma concentrates obtained from the Blood Transfusion Service; from tissue; host or cells: human platelets (outdated platelet-rich plasma concentrates from the Blood Transfusion Service)
T1 sequence (P43119 whole entry, the tested form may be a part): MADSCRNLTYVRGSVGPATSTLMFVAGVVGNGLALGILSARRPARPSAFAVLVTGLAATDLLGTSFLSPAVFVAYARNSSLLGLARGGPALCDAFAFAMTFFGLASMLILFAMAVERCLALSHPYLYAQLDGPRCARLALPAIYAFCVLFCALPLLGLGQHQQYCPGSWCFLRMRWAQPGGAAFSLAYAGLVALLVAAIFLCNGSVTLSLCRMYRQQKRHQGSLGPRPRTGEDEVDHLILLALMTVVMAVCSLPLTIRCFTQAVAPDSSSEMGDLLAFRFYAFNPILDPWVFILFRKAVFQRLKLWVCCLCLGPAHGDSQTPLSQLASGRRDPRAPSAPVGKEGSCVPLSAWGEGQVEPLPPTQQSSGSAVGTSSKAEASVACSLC
Kind of experiment: Inhibition of [^3 H]iloprost binding to human platelet membranes. Conditions: [^3 H]iloprost 10 nM; pH 7.4; 30 min at 37° C.; calculated from IC50 for displacement. Here is the method: METHOD FOR MEASUREMENT OF KI FOR INHIBITION OF [^3 H]ILOPROST BINDING TO HUMAN PLATELET MEMBRANES
Membranes were prepared from outdated platelet-rich plasma concentrates obtained from the Blood Transfusion Service. The platelets were homogenised in buffer containing Tris-Cl (5 mM, pH 7.4 at 20° C.) and EDTA (0.25 mM), and then centrifuged (10 min at 26,000 g). The membrane pellet was washed twice by homogenisation in buffer containing Tris-Cl (50 mM, pH 7.4 at 20° C.) and EDTA (0.25 mM), followed by centrifugation. For measurement of [^3 H]iloprost binding, membranes (0.4-0.8 mg) were incubated in the presence of Tris-Cl (50 mM, pH 7.4 at 20° C.), MgCl2 (4 mM), EDTA (40 μM), […] (10 nM), DMSO (1.85%), and varying concentrations of the test compounds. For determination of non-specific binding, 20 μM iloprost was included. The tubes (triplicates for each condition) were set up on ice, and then incubated for 30 min at 37° C. The incubations were terminated by rapid filtration on Whatman GF/B filters using a Brandel Harvester. The filters were washed and then counted for radioactivity. The Ki of the test compounds for inhibition of binding of [^3 H] iloprost to human platelet membranes was calculated from the IC50 for displacement of [^3 H]iloprost binding.

Turning to `O=c1n(CCCCCCCS(=O)(=O)O)c(-c2ccccc2)c(-c2ccccc2)n1-c1ccccc1` [Example 1, Sodium 7(3,4,5-triphenyl-2-oxo-2,3-dihydroimidazol-1-yl)-heptanesulphonate], the IC50 in the experiment with washed human platelets came out at 0.25 µM. In experiment [1], the Ki was 8 µM.
`CCOP(=O)(CCCCCCCn1c(-c2ccccc2)c(-c2ccccc2)n(-c2ccccc2)c1=O)OCC` [Example 2, Diethyl 7-(3,4,5-triphenyl-2-oxo-2,3-dihydroimidazol-1-yl)heptanephosphonate] showed an IC50 with washed human platelets of 5.5 µM. Also, the Ki in experiment [1] is 30 µM.
Molecule `O=c1n(CCCCCCCP(=O)(O)O)c(-c2ccccc2)c(-c2ccccc2)n1-c1ccccc1` [Example 3, 7-(3,4,5-Triphenyl-2-oxo-2,3-dihydroimidazol-1-yl)-heptanephosphonic acid] gave an IC50 with washed human platelets of 43 µM. In addition, the Ki in experiment [1] was 1.29 µM.
The matching figures for `CCOP(C)(=O)CCCCCCCn1c(-c2ccccc2)c(-c2ccccc2)n(-c2ccccc2)c1=O` (centres unmarked) [Example 4, Ethyl 7-(3,4,5-triphenyl-2-oxo-2,3-dihydroimidazol-1-yl)methylphosphinate]: 21 µM and 19 µM.

A word on the IC50: it is the midpoint of a concentration-inhibition curve. Read a low IC50 as greater potency. What is called Ki is the equilibrium dissociation constant of an inhibitor or competing ligand from its target.
